Structures are written as SMILES.

The experiment relates to mouse inflammatory bowel disease model (DSS). Nature of the experiment: Efficacy in mouse inflammatory bowel disease model with 5-ASA control (Example 7). Format: in vivo. The note with it: 50 mg/kg, compared with the other groups.

Excerpt: As the symptoms of inflammatory bowel disease were aggravated, systemic inflammations may be caused through the release of inflammatory cytokines in the blood, and therefore, an effective anti-inflammatory medicine was thought to inhibit the release of inflammatory substances in the spleen, liver, kidney, or the like to prevent the inflammations, and thus this was investigated.

With `Nc1ccc(O)c(C(=O)O)c1` [5-ASA, 5-aminosalicylic acid], the spleen weight entry is on record as “spleen weight was high”.
